2 molecules from US12616672B2, “Methods for assessing risk of cardiovascular disease and methods and compounds for use in treating or preventing cardiovascular disease” (Queen Mary University of London, priority 2017, dated 2026) can be followed below.

Assay [1] has as its system peripheral blood from CVD patients. The note with it: ADA 1U, 37° C., 20 min, then perfused 0.3 Pa.
Method: (B) Peripheral blood from CVD patients was incubated with ADA (1U; 37° C.; 20 min) then perfused (0.3 Pa, 20 min, 37° C.). Plasma was collected and RvDn-3 DPA concentrations determined using LC/MS-MS based lipid mediator profiling. Results are mean±s.e.m. n=6 donors. *p<0.05, using paired Mann-Whitney test.
Using an automated syringe pump (Harvard Apparatus) connected to small-diameter tubing (1.6 mm inner diameter) and chamber slides (15μ-Slide VI^0.4, Ibidi), whole blood was perfused at a sheer rate of 0.1 dyne/cm^2 (low sheer rate) and at 0.3 dyne/cm^2 (high sheer rate) for 15 min. In selected experiment, blood was incubated with 10 nM Ach or 1 u of ADA for 20 min prior perfusing.
Assay [2] has as its system healthy volunteer peripheral blood neutrophils, monocytes and platelets. The experiment in a line: Healthy volunteer whole blood incubated with RvDn-3 DPA then PAF, flow cytometry of activation markers. The format is cell-based, human. The note with it: vs PAF alone. The method, then: Blood was collected from healthy volunteers and incubated with RvD2n-3 DPA, RvD5n-3 DPA (0.1 nM, 1 nM or 10 nM) or vehicle (PBS) for 15 min (37° C.) then with PAF (100 ng/ml; 30 min; 37° C.). Cell activation and leukocyte-platelet aggregates were assessed using flow cytometry. (A,B) Representative histograms depicting neutrophil (A) CD11b and (B) CD62P expression. (C,D) Cumulative neutrophil ([…]) CD11b and (D) CD62P expression. (E,F) Monocyte (E) CD11b and (F) CD62P expression. Results are mean of n=5 per time point and expressed as percentage change from PAF incubated cells. *p<0.05 compared to PAF using one-sample t test, followed by Sidak correction of p values.
Blood was collected from healthy volunteers and incubated with RvD2n-3 DPA, RvD5n-3 DPA (0.1 nM, 1 nM or 10 nM) or vehicle (PBS) for 15 min (37° C.) then with PAF (100 ng/ml; 30 min; 37° C.). Cell activation and leukocyte-platelet aggregates were assessed using flow cytometry. (A,B) Images depicting platelet monocyte (A) and (B) platelet-neutrophil aggregates. Results are representative of n=3 distinct experiments. (C,D) Cumulative neutrophil (C) CD11b and (D) CD62P expression. (E,F) Monocyte (E) CD11b and (F) CD62P expression. Results are mean of n=5 per condition and expressed as percentage change from PAF incubated cells. *p<0.05 compared to PAF using Wilcoxon Signed Rank Test. (G) Platelet rich plasma was incubated with vehicle (PBS) or RvD5n-3 DPA 0.1-10 nM (15 min; 37° C.) and PAF (100 nM; 30 min; 37° C.). Adhesion molecule expression evaluated using flow cytometry. Results are mean±s.e.m. n=5 healthy volunteers. * p, 0.05 compared to Vehicle group using Friedman's test followed by Dunn's multiple comparisons test.
(§1) After stimulation, samples were washed twice with PBS for 12 min at 800×g. Samples were stained for flow cytometry as described below.
(§2) Whole blood was incubated with lineage-specific markers for 45 min (4° C., in DPBS containing 0.02% BSA). The following anti-human antibodies were used: VioBlue-anti-CD41, PE-Cy5-anti-CD62P, Brilliant Violet 711-anti-CD11b, APC-Cy7-anti-CD16, Alexa Fluor 647-anti-CD14. After staining, red blood cells were lysed using Whole Blood Lysing Reagent Kit, according to the manufacturer's instructions. Data was collected using a flow cytometer and analysis was conducted using appropriate software.

For assay [3], the system named is peripheral blood leukocytes and platelets from CVD patients. Briefly: CVD patient whole blood incubated with RvD2n-3 DPA or RvD5n-3 DPA for 45 min, flow cytometry. It is filed as cell-based, human. The note with it: 45 min, no PAF. As to the method: FIG. 8: RvD2n-3 DPA and RvD5n-3 DPA reduce leukocyte activation in peripheral blood from CVD patients. Peripheral blood from patients diagnosed with cardiovascular disease (CVD) was collected at 9:00 h. […] Expression of CD62P on (A) neutrophils (B) monocytes and CD11b on (C) neutrophils and (D) monocytes was investigated using flow cytometry and fluorescently labelled antibodies.
as §2
In select experiments platelet adhesion molecule expression was assessed. Here platelets were incubated with fluorescently labelled mouse anti-human VioBlue-anti-CD41, PE-Cy5-anti-CD62P, PerCP/Cy5.5-anti-CD63 and FITC-ant-CD42b for 30 min at 4° C. Cells were then washed and fluorescence, staining evaluated using LSRFortessa cell analyser (BD Biosciences) and analysed using FlowJo software (Tree Star Inc., V10).

For assay [4] the test system is unchanged. The experiment in a line: CVD patient whole blood incubated with RvD2n-3 DPA or RvD5n-3 DPA then PAF, flow cytometry. It is filed as cell-based, human. The note with it: 15 min then PAF 30 min. The method, then: Whole blood was incubated with RvD2n-3 DPA or RvD5n-3 DPA (0.1 nM, 1 nM or 10 nM) or vehicle (PBS containing 0.01% EtOH) for 15 min then with PAF (100 ng/ml) for 30 min (37° C.). Expression of CD62P on (A) neutrophils (B) monocytes and CD11b on (C) neutrophils and (D) monocytes was investigated using flow cytometry and fluorescently labelled antibodies. Results are mean±s.em. and expressed as percentage of PAF incubated cells. n=9 patients per interval. * p<0.05 vs Veh group using one-sample t test, followed by Sidak correction of p values.
Whole blood was incubated with RvD2n-3 DPA or RvD5n-3 DPA (0.1 nM, 1 nM or 10 nM) or vehicle (PBS containing 0.01% EtOH) for 15 min then with PAF (100 ng/ml) for 30 min (37° C.). Expression of CD62P on (A) neutrophils (B) monocytes and CD11b on (C) neutrophils and (D) monocytes was investigated using flow cytometry and fluorescently labeled antibodies. Results are mean±s.em. and expressed as percentage of PAF incubated cells. n=9 patients per group. * p<0.05 vs PAF group using Wilcoxon Signed Rank Test.
as §1, §2

The test system is the same in assay [5]. Described as above. The format is cell-based, human.
Setting [6] is: 0.1, 1, 10 nM, 15 min then PAF 30 min.
The mark [7] stands for this setting: CVD patient whole blood, 0.1, 1, 10 nM.

On to adenosine deaminase [ADA], for which, in assay [1], the “concentrations of RvDn-3 DPA in CVD patient blood” value was “increase”.
Turning to `CC/C=C\CC(O)C(O)/C=C/C=C/C=C\C=C\C(O)CCCCCC(=O)O` (stereo not shown) [RvD2n-3 DPA, 7,16,17-trihydroxy-8,10,12,14E,19Z-docosapentaenoic acid], in assay [2] (setting [6]), the “monocyte expression of CD11b” value is listed as “dose dependent decreases”, the “monocyte expression of platelet marker CD62P” value is “dose dependent decreases”, the “neutrophil CD11b expression” value was “dose dependent decreases” and the “neutrophil-platelet aggregates measured as neutrophil CD62P expression” value is “dose dependent decreases”. In assay [2] (at 10 nM, n=5 donors), the “decrease in monocyte CD41 expression” value is given as around 29% and the “decrease in neutrophil CD41 expression” value is listed as around 20%. In assay [3] (setting [7]), the “monocyte CD11b expression” value is listed as “without significantly regulating”, the “neutrophil CD11b expression” value is given as “without significantly regulating”, the platelet-monocyte aggregates result was “dose-dependently decreased” and the platelet-neutrophil aggregates entry is given as “dose-dependently decreased”. Moreover, in assay [3] (CVD patient whole blood), the “platelet CD62P expression” value is given as “downregulated” and the “platelet CD63 expression” value is “downregulated”. For the same molecule, in assay [4], the “expression of CD11b on monocytes” value was “only in part shared”; the “expression of CD11b on neutrophils” value was “only in part shared”; the “platelet-monocyte aggregates measured as CD62P and CD41 expression” value was “decreases”; the “platelet-neutrophil aggregates measured as CD62P and CD41 expression” value is “decreases”. Moreover, in assay [5], the “expression of CD62P on peripheral blood platelets” value is “dose-dependently regulated” and the “expression of CD63 on peripheral blood platelets” value is listed as “dose-dependently regulated”.
